Among the data in PubChem BioAssay (NCI) are TGI values, retold here.

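96-well plates; 48 h exposure; 5 concentrations. Endpoints by linear interpolation between flanking doses. Not reached: highest tested concentration assigned. At the TGI there is no net growth.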

Test systems include A549 NSCLC; NCI-H23 lung; CCRF-CEM leukemia; NCI-H226 lung; MOLT-4 leukemia; U251 CNS; CAKI-1 renal; K-562 leukemia; OVCAR-5 ovarian; HL-60(TB) leukemia; HS 578T breast; KM12 colon; HCT-15 colon; NCI-H460 lung; NCI-H522 lung.
Holding throughout (experiment): NCI anticancer screen, dose series, 48 h

`COc1ccc2c(c1)nc1n2C(c2c(F)cccc2F)SC1` (stereo not drawn): the TGI in the test on A549 NSCLC, in the test with NCI-H23 lung, in the test on CCRF-CEM leukemia, in the test with NCI-H226 lung, with MOLT-4 leukemia and in the test with U251 CNS was greater than 100 µM throughout. Further, the TGI in the test with CAKI-1 renal, in the test with K-562 leukemia, with OVCAR-5 ovarian, in the test with HL-60(TB) leukemia, with HS 578T breast and in the test with KM12 colon was greater than 100 µM each time. Further, the TGI in the test on HCT-15 colon and in the test with NCI-H460 lung was greater than 100 µM in each case.

In the case of `COC(=O)C1=C(O)C(C(=O)OC)[C@]2(O)[C@H](C(=O)OC)[C@H]1C[C@@H](c1ccc(Cl)cc1Cl)[C@H]2C(=O)OC` (stereo partly drawn), the TGI is 24.5 µM in the test on A549 NSCLC; 19.1 µM in the test with NCI-H23 lung; 16.3 µM in the test with NCI-H226 lung; 8.98 µM in the test with MOLT-4 leukemia; 14.4 µM with U251 CNS; greater than 100 µM in the test on CAKI-1 renal. Besides, the TGI in the test with K-562 leukemia was 14 µM; with OVCAR-5 ovarian, 40.7 µM; with HL-60(TB) leukemia, 7.9 µM; in the test with HS 578T breast, greater than 100 µM; in the test on KM12 colon it was 32.9 µM; with HCT-15 colon, 27.6 µM. In the test on NCI-H460 lung, the TGI is 23.2 µM.

Take `COc1cccc2c1C(=O)c1c(O)c3c(c(O)c1C2=O)CC(O)(C(C)=O)CC3OC1CC([N+](C)(C)C)C(O)C(C)O1` (stereo not drawn): the TGI in the test with A549 NSCLC was greater than 100 µM; with NCI-H23 lung it was greater than 100 µM; with CCRF-CEM leukemia, greater than 100 µM; in the test on NCI-H226 lung it was greater than 100 µM; in the test on MOLT-4 leukemia, 56.1 µM; in the test on U251 CNS it was greater than 100 µM. For the same compound, the TGI in the test on CAKI-1 renal, in the test on K-562 leukemia, in the test with OVCAR-5 ovarian, in the test on HL-60(TB) leukemia, in the test with KM12 colon and in the test with HCT-15 colon was greater than 100 µM in each case. The TGI in the test on NCI-H460 lung and with NCI-H522 lung was greater than 100 µM throughout.

With `O=[N+]([O-])/C(C(Cl)=C(Cl)Cl)=C(\Nc1cccc2cccnc12)Sc1ccccc1`, the TGI in the test with A549 NSCLC is greater than 100 µM; in the test with NCI-H23 lung, 37.6 µM; with CCRF-CEM leukemia it was greater than 100 µM; in the test on NCI-H226 lung it was 86.6 µM; in the test with MOLT-4 leukemia, 37.4 µM; with U251 CNS, 54.2 µM. The TGI with CAKI-1 renal was 46.7 µM; in the test on K-562 leukemia, 84.5 µM; with OVCAR-5 ovarian, greater than 100 µM; with HS 578T breast it was 38 µM; in the test with KM12 colon, 28.6 µM; in the test on HCT-15 colon, 34.4 µM. In addition, in the test on NCI-H460 lung, the TGI is greater than 100 µM.

As to `CCCC[P+](CCCC)(CCCC)C(C(=O)OC)C(C(=O)OC)=C1SC(C(=O)OC)=C(C(=O)OC)S1` (stereo not drawn), the TGI in the test with A549 NSCLC, in the test with NCI-H23 lung, in the test on NCI-H226 lung, with MOLT-4 leukemia, in the test with U251 CNS and with OVCAR-5 ovarian was greater than 100 µM each time. For the same compound, the TGI in the test with HS 578T breast, with HCT-15 colon, in the test with NCI-H460 lung and in the test with NCI-H522 lung was greater than 100 µM throughout.

As to `COc1ccccc1-c1n[nH]c(-c2ccccc2O)n1`, the TGI in the test with A549 NSCLC, with NCI-H23 lung, in the test on CCRF-CEM leukemia, in the test on NCI-H226 lung, with MOLT-4 leukemia and in the test with U251 CNS was greater than 100 µM each time. The TGI in the test with CAKI-1 renal, with K-562 leukemia, in the test on OVCAR-5 ovarian, with HL-60(TB) leukemia, with HS 578T breast and in the test with KM12 colon was greater than 100 µM in each case. Also, the TGI in the test on HCT-15 colon and in the test on NCI-H460 lung was greater than 100 µM throughout.

As to `CC1(C)C2CC1C(/C=N\OCC(=O)O)=CC2=O` (stereo not drawn), the TGI with A549 NSCLC, with NCI-H23 lung, with CCRF-CEM leukemia, in the test on NCI-H226 lung, in the test on MOLT-4 leukemia and in the test with U251 CNS was greater than 100 µM throughout. Further, the TGI in the test on CAKI-1 renal, with K-562 leukemia, in the test with OVCAR-5 ovarian, in the test with HL-60(TB) leukemia, in the test with HS 578T breast and in the test on KM12 colon was greater than 100 µM throughout. Moreover, the TGI with HCT-15 colon and in the test on NCI-H460 lung was greater than 100 µM throughout.

In the case of `[N-]=[N+]=NC1(c2ccccc2)C(=O)c2cccc3c4ccccc4n(c23)C1=O` (stereo not drawn), the TGI in the test with A549 NSCLC, in the test on NCI-H23 lung, with CCRF-CEM leukemia, with NCI-H226 lung, with MOLT-4 leukemia and in the test on U251 CNS was greater than 100 µM in each case. The TGI in the test on CAKI-1 renal, in the test with OVCAR-5 ovarian, in the test on HS 578T breast, in the test with KM12 colon, with HCT-15 colon and in the test with NCI-H460 lung was greater than 100 µM throughout. Besides, in the test with NCI-H522 lung, the TGI was greater than 100 µM.

Regarding `CC[N+](C)(C)c1ccc(C(=C2C=CC(=[N+](C)C)C=C2)c2ccc(N(C)C)cc2)cc1`, the TGI is greater than 100 µM with A549 NSCLC; 55 µM in the test with NCI-H23 lung; 33.5 µM with CCRF-CEM leukemia; 52.8 µM in the test with NCI-H226 lung; 46.1 µM in the test on MOLT-4 leukemia; 14 µM in the test on U251 CNS. Also, the TGI with CAKI-1 renal is greater than 100 µM; in the test on K-562 leukemia it was 15.2 µM; with OVCAR-5 ovarian it was greater than 100 µM; with HL-60(TB) leukemia, 6 µM; in the test with KM12 colon it was 17.5 µM; with HCT-15 colon, 89.4 µM. The TGI in the test on NCI-H460 lung was determined as 22.4 µM; in the test with NCI-H522 lung, 9.37 µM.

For `CC1CC/C(=C\c2ccc(Cl)cc2)C(=O)/C1=C\c1ccc(Cl)cc1` (stereo not drawn), the TGI in the test on A549 NSCLC was greater than 100 µM; in the test on CCRF-CEM leukemia, greater than 100 µM; in the test on U251 CNS it was greater than 100 µM; with CAKI-1 renal it was 44.9 µM; with K-562 leukemia, greater than 100 µM; in the test on OVCAR-5 ovarian, 44.6 µM. The TGI with HS 578T breast worked out at 93.8 µM; in the test on KM12 colon, 41.5 µM; in the test on HCT-15 colon, 50.4 µM.
